Molecular target: HCV NS3-4A serine protease (full-length NS3-4A protein) (Hepatitis C virus genotype 1a (isolate 1) (HCV), UniProt P26664)
Experiment: HCV NS3-4A protease assay
Type: biochemical, HCV genotype 1a
Conditions: strain HCV-1, fluorogenic peptide substrate, read-out: Protease assay Ex. 12 IC50
Method: The inhibitory activity of certain compounds of Table A against HCV NS3-4A serine protease is determined in a homogenous assay using the full-length NS3-4A protein (genotype 1a, strain HCV-1) and a commercially available internally-quenched fluorogenic peptide substrate as described by Taliani, M., et al. 1996 Anal. Biochem. 240:60-67, which is incorporated by reference in its entirety.

HCV NS3-4A serine protease (full-length NS3-4A protein), sequence (P26664 1027-1657): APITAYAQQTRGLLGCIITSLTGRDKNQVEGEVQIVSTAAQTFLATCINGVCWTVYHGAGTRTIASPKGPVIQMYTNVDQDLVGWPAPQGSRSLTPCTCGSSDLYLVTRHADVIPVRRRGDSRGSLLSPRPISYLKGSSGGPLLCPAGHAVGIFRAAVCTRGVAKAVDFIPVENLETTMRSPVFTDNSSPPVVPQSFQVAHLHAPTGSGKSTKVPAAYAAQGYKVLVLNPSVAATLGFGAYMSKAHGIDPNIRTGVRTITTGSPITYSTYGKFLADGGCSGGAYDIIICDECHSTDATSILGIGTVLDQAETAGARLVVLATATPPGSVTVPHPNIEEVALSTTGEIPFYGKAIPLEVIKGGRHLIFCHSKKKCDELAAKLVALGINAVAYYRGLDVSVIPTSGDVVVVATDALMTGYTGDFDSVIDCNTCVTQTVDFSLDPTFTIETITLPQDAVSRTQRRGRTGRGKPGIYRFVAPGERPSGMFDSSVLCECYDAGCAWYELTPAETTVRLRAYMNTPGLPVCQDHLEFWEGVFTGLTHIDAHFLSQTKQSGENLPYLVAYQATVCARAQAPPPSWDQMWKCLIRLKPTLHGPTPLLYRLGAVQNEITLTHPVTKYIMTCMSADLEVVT
HCV NS3-4A serine protease (full-length NS3-4A protein), sequence (P26664 1658-1711 partner): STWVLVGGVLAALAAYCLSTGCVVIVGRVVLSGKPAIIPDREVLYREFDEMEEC

SMILES	IC50
C=C[C@@H]1C[C@]1(NC(=O)[C@@H]1C[C@@]2(CN1C(=O)[C@@H](NC(=O)[C@@H](NC(=O)[C@@H]1CCCN1CC)C1CCCC1)C(C)(C)C)C(C)(C)C21CCC1)C(=O)NS(=O)(=O)N(CC)CC [Compound 97, (5R,8S)-7-[(2S)-2-{[(2S)-2-cyclopentyl-2-({[(2S)-1-ethylpyrrolidin-2-yl]carbonyl}amino)acetyl]amino}-3,3-dimethylbutanoyl]-N-[(1R,2S)-1-{[(diethylamino)sulfonyl]carbamoyl}-2-vinylcyclopropyl]-10,10-dimethyl-7-azadispiro[3.0.4.1]decane-8-carboxamide]	10 nM
[2H]C([2H])([2H])C([2H])([2H])N1CCCC[C@H]1C(=O)NC(C(=O)N[C@H](C(=O)N1C[C@]2(C[C@H]1C(=O)N[C@]1(C(=O)NS(=O)(=O)N3CCCC3)C[C@H]1C=C)C(C)(C)C21CCC1)C(C)(C)C)C1CCCCC1 (stereo partly drawn) [Compound 139, (5R,8S)-7-[(2S)-2-{[(2S)-2-cyclohexyl-2-({[(2S)-1-d5-ethylpiperidin-2-yl]carbonyl}amino)acetyl]amino}-3,3-dimethylbutanoyl]-10,10-dimethyl-N-{(1R,2S)-1-[(pyrrolidin-1-ylsulfonyl)carbamoyl]-2-vinylcyclopropyl}-7-azadispiro[3.0.4.1]decane-8-carboxamide-d5]	3.5 nM
C=C[C@@H]1C[C@]1(NC(=O)[C@@H]1C[C@@]2(CN1C(=O)[C@@H](NC(=O)[C@@H](NC(=O)[C@@H]1CCCN1CC)C1(C)CCOCC1)C1(C)CCCCC1)C(C)(C)C21CCC1)C(=O)NS(=O)(=O)N(CC)CC [Compound 157, (5R,8S)-N-[(1R,2S)-1-{[(diethylamino)sulfonyl]carbamoyl}-2-vinylcyclopropyl]-7-[(2S)-2-{[(2S)-2-({[(2S)-1-ethylpyrrolidin-2-yl]carbonyl}amino)-2-(4-methyltetrahydro-2H-pyran-4-yl)acetyl]amino}-2-(1-methylcyclohexyl)acetyl]-10,10-dimethyl-7-azadispiro[3.0.4.1]decane-8-carboxamide]	1 nM
C=C[C@@H]1C[C@]1(NC(=O)[C@@H]1C[C@@]2(CN1C(=O)[C@@H](NC(=O)[C@@H](NC(=O)[C@@H]1CCCCN1C(C)C)C1(C)CCCCC1)C1(C)CCOCC1)C(C)(C)C21CCC1)C(=O)NS(=O)(=O)N1CCCC1 [Compound 147, (5R,8S)-7-[(2S)-2-{[(2S)-2-({[(2S)-1-isopropylpiperidin-2-yl]carbonyl}amino)-2-(1-methylcyclohexyl)acetyl]amino}-2-(4-methyltetrahydro-2H-pyran-4-yl)acetyl]-10,10-dimethyl-N-{(1R,2S)-1-[(pyrrolidin-1-ylsulfonyl)carbamoyl]-2-vinylcyclopropyl}-7-azadispiro[3.0.4.1]decane-8-carboxamide]	1.5 nM
C=C[C@@H]1C[C@]1(NC(=O)[C@@H]1C[C@@]2(CN1C(=O)[C@@H](NC(=O)[C@@H](NC(=O)C(C)(C)N1CCCC1)C(C)(C)C)C(C)(C)C)C(C)(C)C21CCC1)C(=O)NS(=O)(=O)N1CCCC1 [Compound 10, (5R,8S)-7-[(2S)-2-({(2S)-3,3-dimethyl-2-[(2-methyl-2-pyrrolidin-1-ylpropanoyl)amino]butanoyl}amino)-3,3-dimethylbutanoyl]-10,10-dimethyl-N-{(1R,2S)-1-[(pyrrolidin-1-ylsulfonyl)carbamoyl]-2-vinylcyclopropyl}-7-azadispiro[3.0.4.1]decane-8-carboxamide]	65 nM
C=C[C@@H]1C[C@]1(NC(=O)[C@@H]1C[C@@]2(CN1C(=O)[C@@H](NC(=O)[C@@H](NC(=O)[C@@H]1CCCN1CC)C1CCCCC1)C1(C)CCOCC1)C(C)(C)C21CCC1)C(=O)NS(=O)(=O)N(CC)CC [Compound 154, (5R,8S)-7-[(2S)-2-{[(2S)-2-cyclohexyl-2-({[(2S)-1-ethylpyrrolidin-2-yl]carbonyl}amino)acetyl]amino}-2-(4-methyltetrahydro-2H-pyran-4-yl)acetyl]-N-[(1R,2S)-1-{[(diethylamino)sulfonyl]carbamoyl}-2-vinylcyclopropyl]-10,10-dimethyl-7-azadispiro[3.0.4.1]decane-8-carboxamide]	2.8 nM
C=C[C@@H]1C[C@]1(NC(=O)[C@@H]1C[C@@]2(CN1C(=O)[C@@H](NC(=O)[C@@H](NC(=O)[C@@H]1CCCCN1C(C)C)C(C)(C)C)C(C)(C)C)C(C)(C)C21CCC1)C(=O)NS(=O)(=O)N1CCOCC1 [Compound 6, (5R,8S)-7-[(2S)-2-{[(2S)-2-({[(2S)-1-isopropylpiperidin-2-yl]carbonyl}amino)-3,3-dimethylbutanoyl]amino}-3,3-dimethylbutanoyl]-10,10-dimethyl-N-{(1R,2S)-1-[(morpholin-4-ylsulfonyl)carbamoyl]-2-vinylcyclopropyl}-7-azadispiro[3.0.4.1]decane-8-carboxamide]	45 nM
C=C[C@@H]1C[C@]1(NC(=O)[C@@H]1C[C@@]2(CN1C(=O)[C@@H](NC(=O)[C@@H](NC(=O)c1c[nH]c3ccccc13)C1CCCCC1)C(C)(C)C)C(C)(C)C21CCC1)C(=O)NS(=O)(=O)N1CCCC1 [Compound 189, (5R,8S)-7-[(2S)-2-({cyclohexyl[(1H-indol-3-ylcarbonyl)amino]acetyl}amino)-3,3-dimethylbutanoyl]-10,10-dimethyl-N-{(1R,2S)-1-[(pyrrolidin-1-ylsulfonyl)carbamoyl]-2-vinylcyclopropyl}-7-azadispiro[3.0.4.1]decane-8-carboxamide]	25 nM
C=C[C@@H]1C[C@]1(NC(=O)[C@@H]1C[C@@]2(CN1C(=O)[C@@H](NC(=O)[C@@H](NC(=O)[C@@H]1CCCCN1CC)C1CCCCC1)C1(C)CCOCC1)C(C)(C)C21CCC1)C(=O)NS(=O)(=O)N(CC)CC [Compound 151, (5R,8S)-7-[(2S)-2-{[(2S)-2-cyclohexyl-2-({[(2S)-1-ethylpiperidin-2-yl]carbonyl}amino)acetyl]amino}-2-(4-methyltetrahydro-2H-pyran-4-yl)acetyl]-N-[(1R,2S)-1-{[(diethylamino)sulfonyl]carbamoyl}-2-vinylcyclopropyl]-10,10-dimethyl-7-azadispiro[3.0.4.1]decane-8-carboxamide]	2 nM
C=C[C@@H]1C[C@]1(NC(=O)[C@@H]1C[C@@]2(CN1C(=O)[C@@H](NC(=O)[C@@H](NC(=O)c1ccc3c(ccn3C)c1)C1CCCCC1)C(C)(C)C)C(C)(C)C21CCC1)C(=O)NS(=O)(=O)N1CCCC1 [Compound 198, (5R,8S)-7-{(2S)-2-[(cyclohexyl{[(1-methyl-1H-indol-5-yl)carbonyl]amino}acetyl)amino]-3,3-dimethylbutanoyl}-10,10-dimethyl-N-{(1R,2S)-1-[(pyrrolidin-1-ylsulfonyl)carbamoyl]-2-vinylcyclopropyl}-7-azadispiro[3.0.4.1]decane-8-carboxamide]	40 nM
C=C[C@@H]1C[C@]1(NC(=O)[C@@H]1C[C@@]2(CN1C(=O)[C@@H](NC(=O)[C@@H](NC(=O)[C@@H]1CCCN1CC)C1CCCCC1)C(C)(C)C)C(C)(C)C21CCC1)C(=O)NS(=O)(=O)N(CC)CCC [Compound 107, (5R,8S)-7-[(2S)-2-{[(2S)-2-cyclohexyl-2-({[(2S)-1-ethylpyrrolidin-2-yl]carbonyl}amino)acetyl]amino}-3,3-dimethylbutanoyl]-N-[(1R,2S)-1-({[ethyl(propyl)amino]sulfonyl}carbamoyl)-2-vinylcyclopropyl]-10,10-dimethyl-7-azadispiro[3.0.4.1]decane-8-carboxamide]	9 nM
C=C[C@@H]1C[C@]1(NC(=O)[C@@H]1C[C@@]2(CN1C(=O)[C@@H](NC(=O)[C@@H](NC(=O)c1cnc(C)cn1)C1CCCCC1)C(C)(C)C)C(C)(C)C21CCC1)C(=O)NS(=O)(=O)N1CCCC1 [Compound 199, (5R,8S)-7-{(2S)-2-[(cyclohexyl{[(5-methylpyrazin-2-yl)carbonyl]amino}acetyl)amino]-3,3-dimethylbutanoyl}-10,10-dimethyl-N-{(1R,2S)-1-[(pyrrolidin-1-ylsulfonyl)carbamoyl]-2-vinylcyclopropyl}-7-azadispiro[3.0.4.1]decane-8-carboxamide]	14 nM
C=C[C@@H]1C[C@]1(NC(=O)[C@@H]1C[C@@]2(CN1C(=O)[C@@H](NC(=O)[C@@H](NC(=O)[C@@H]1CCCCN1C(C)C)C1CCCCC1)C(C)C)C(C)(C)C21CCC1)C(=O)NS(=O)(=O)N(CC)CC [Compound 132, (5R,8S)-7-[(2S)-2-{[(2S)-2-cyclohexyl-2-({[(2S)-1-isopropylpiperidin-2-yl]carbonyl}amino)acetyl]amino}-3-methylbutanoyl]-N-[(1R,2S)-1-{[(diethylamino)sulfonyl]carbamoyl}-2-vinylcyclopropyl]-10,10-dimethyl-7-azadispiro[3.0.4.1]decane-8-carboxamide]	2.8 nM
C=C[C@@H]1C[C@]1(NC(=O)[C@@H]1C[C@@]2(CN1C(=O)[C@@H](NC(=O)[C@@H](NC(=O)[C@@H]1CCCN1CC)C1CCOCC1)C1(C)CCOCC1)C(C)(C)C21CCC1)C(=O)NS(=O)(=O)N1CCCC1 [Compound 129, (5R,8S)-7-[(2S)-2-{[(2S)-2-({[(2S)-1-ethylpyrrolidin-2-yl]carbonyl}amino)-2-(tetrahydro-2H-pyran-4-yl)acetyl]amino}-2-(4-methyltetrahydro-2H-pyran-4-yl)acetyl]-10,10-dimethyl-N-{(1R,2S)-1-[(pyrrolidin-1-ylsulfonyl)carbamoyl]-2-vinylcyclopropyl}-7-azadispiro[3.0.4.1]decane-8-carboxamide]	6 nM
C=C[C@@H]1C[C@]1(NC(=O)[C@@H]1C[C@@]2(CN1C(=O)[C@@H](NC(=O)[C@@H](NC(=O)[C@@H]1CCCCN1C(C)C)C1CCCCC1)C1CCCCC1)C(C)(C)C21CCC1)C(=O)NS(=O)(=O)N1CCCC1 [Compound 35, (5R,8S)-7-[(2S)-2-cyclohexyl-2-{[(2S)-2-cyclohexyl-2-({[(2S)-1-isopropylpiperidin-2-yl]carbonyl}amino)acetyl]amino}acetyl]-10,10-dimethyl-N-{(1R,2S)-1-[(pyrrolidin-1-ylsulfonyl)carbamoyl]-2-vinylcyclopropyl}-7-azadispiro[3.0.4.1]decane-8-carboxamide]	3 nM
